According to patent US20200069648A1, “HALOALLYLAMINE PYRAZOLE DERIVATIVE INHIBITORS OF LYSYL OXIDASES AND USES THEREOF” (Pharmaxis Ltd., priority 2017, published 2020):
Counter-ions that a name gives are not always drawn.

Legend:
[1] = system: metastatic oral cancer cell line expressing DsRed; assay: Oral metastatic cancer mouse model; assay type: in vivo; conditions: mice, 0.1-100 mg/Kg, up to five weeks; compared with vehicle-treated group
Experimental: An analysis of the use of LOXL2 inhibitors to treat cancer diseases is performed through the use of an oral metastatic cancer mouse model.
Mice are injected with a metastatic oral cancer cell line expressing DsRed for tracking. Mice are monitored weekly by in vivo imaging (IVIS) based on DsRed expression and by caliper measurements of mouse tongues over a period of up to five weeks. Compound 15 is given 0.1-100 mg/Kg throughout the period of the experimental procedure or only two times a week throughout the entire study.

[2] = system: CCl4 induced liver fibrosis; assay: CCl4 induced liver fibrosis model; assay type: in vivo; conditions: mice, CCl4 i.p. twice per week for 6 weeks; 0.1-100 mg/Kg; compared with vehicle-treated group
Experimental: An analysis of the use of LOXL2 inhibitors to treat inflammatory/fibrotic diseases is performed through the use of a CCl4 induced liver fibrosis model. Liver injury is frequently followed by complete parenchymal regeneration due to regenerative potency of hepatocytes. Continuous liver injury due to the administration of CCl4 leads to extracellular matrix accumulation, accompanied by recurrent hepatocyte necrosis, inflammation, and regenerative processes, causing liver fibrosis and consequently liver cirrhosis (see Natsume, M., et al., Attenuated liver fibrosis and depressed serum albumin levels in carbon tetrachloride-treated IL-6-deficient mice. J. Leukoc. Biol., 1999, 66, 601-608 also See Yao, Q, Y., et al. Inhibition by curcumin of multiple sites of the transforming growth factor-beta1 signalling pathway ameliorates the progression of liver fibrosis induced by carbon tetrachloride in rats. BMC Complement Altern Med. 2012 Sep. 16; 12(1):156.).
Mice are injected intraperitoneally with CCl4 (i.p.) 1 ml/kg 25% CCl4 in olive oil, twice per week for a total period of 6 weeks. Compound 15 is given 0.1-100 mg/Kg throughout the period of the experimental procedure or only 3 weeks after CCl4 administration and then throughout the entire study.

Cc1nn(C/C(F)=C/CN)c(C)c1Cc1ccc(S(=O)(=O)N(C)C)c(Cl)c1 [Compound 15, (Z)-4-((1-(4-amino-2-fluorobut-2-en-1-yl)-3,5-dimethyl-1H-pyrazol-4-yl)methyl)-2-chloro-N,N-dimethylbenzenesulfonamide hydrochloride]
spread of metastasis [1]: significant reduction
tongue cancer volume (tongue volume) [1]: significant reduction
reduction in liver fibrosis by liver sirius red staining with quantification [2]: up to 50%
